Structures are written as SMILES. Like-named read-outs stand apart in the source and are kept apart here.

The target of one experiment is rat mGlu3 (Rattus norvegicus (Rat), UniProt P31422). Put plainly: mGlu3 Ca2+ flux assay. It is filed as cell-based. The conditions noted are these: for remaining activity at 30 µM: amplitude of response at 30 μM test compound as % of maximal response to glutamate, read-out: rat mGlu3 Glu max (%). The gist of the method: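 Cells expressing rat mGlu3 were grown overnight at 37° C. under 5% CO2, then loaded with dye. After dye removal they received 20 μL of assay buffer and sat 10 minutes at room temperature. Calcium flux was read on a Hamamatsu FDSS7000, and fluorescence was expressed as fold over basal and normalized to the maximal glutamate response.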
A general note: A change in cytosolic calcium serves as a functional read-out for many receptors and channels.

In another experiment the target is rat mGlu5 (Rattus norvegicus (Rat), UniProt P31424). Put plainly: mGlu5 Ca2+ flux assay. It counts as cell-based. The conditions noted are these: for Fold selectivity (mGlu3 vs. mGlu5): ratio of rat mGlu5 EC50 or IC50 to rat mGlu3 IC50; for Emax at 30 µM: PAM, amplitude of response at 30 μM test compound as % of maximal response to glutamate, read-out: rat mGlu5 Glu max (%). Summed up:
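Transfected cells grown overnight at 37° C/5% CO2, dye-loaded, then 5 min in assay buffer at RT before Ca2+ flux read on FDSS7000. Fluorescence as F/F0 fold over basal, normalized to maximal glutamate response; EC50 from unconstrained 4-parameter logistic fit, triplicates weighted evenly.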

The mark [1] stands for this setting: NAM potency, decrease of glutamate EC80 response, >30,000 = no measurable activity, >10,000 = no plateau, read-out: rat mGlu3 IC50.
Where [2] appears, read: read-out: rat mGlu5 EC50 or IC50.
[3] abbreviates: Table 2 compounds with X = O, response at 30 μM compound as percentage of maximal glutamate response.

Chain of rat mGlu5 (P31424 21-1203): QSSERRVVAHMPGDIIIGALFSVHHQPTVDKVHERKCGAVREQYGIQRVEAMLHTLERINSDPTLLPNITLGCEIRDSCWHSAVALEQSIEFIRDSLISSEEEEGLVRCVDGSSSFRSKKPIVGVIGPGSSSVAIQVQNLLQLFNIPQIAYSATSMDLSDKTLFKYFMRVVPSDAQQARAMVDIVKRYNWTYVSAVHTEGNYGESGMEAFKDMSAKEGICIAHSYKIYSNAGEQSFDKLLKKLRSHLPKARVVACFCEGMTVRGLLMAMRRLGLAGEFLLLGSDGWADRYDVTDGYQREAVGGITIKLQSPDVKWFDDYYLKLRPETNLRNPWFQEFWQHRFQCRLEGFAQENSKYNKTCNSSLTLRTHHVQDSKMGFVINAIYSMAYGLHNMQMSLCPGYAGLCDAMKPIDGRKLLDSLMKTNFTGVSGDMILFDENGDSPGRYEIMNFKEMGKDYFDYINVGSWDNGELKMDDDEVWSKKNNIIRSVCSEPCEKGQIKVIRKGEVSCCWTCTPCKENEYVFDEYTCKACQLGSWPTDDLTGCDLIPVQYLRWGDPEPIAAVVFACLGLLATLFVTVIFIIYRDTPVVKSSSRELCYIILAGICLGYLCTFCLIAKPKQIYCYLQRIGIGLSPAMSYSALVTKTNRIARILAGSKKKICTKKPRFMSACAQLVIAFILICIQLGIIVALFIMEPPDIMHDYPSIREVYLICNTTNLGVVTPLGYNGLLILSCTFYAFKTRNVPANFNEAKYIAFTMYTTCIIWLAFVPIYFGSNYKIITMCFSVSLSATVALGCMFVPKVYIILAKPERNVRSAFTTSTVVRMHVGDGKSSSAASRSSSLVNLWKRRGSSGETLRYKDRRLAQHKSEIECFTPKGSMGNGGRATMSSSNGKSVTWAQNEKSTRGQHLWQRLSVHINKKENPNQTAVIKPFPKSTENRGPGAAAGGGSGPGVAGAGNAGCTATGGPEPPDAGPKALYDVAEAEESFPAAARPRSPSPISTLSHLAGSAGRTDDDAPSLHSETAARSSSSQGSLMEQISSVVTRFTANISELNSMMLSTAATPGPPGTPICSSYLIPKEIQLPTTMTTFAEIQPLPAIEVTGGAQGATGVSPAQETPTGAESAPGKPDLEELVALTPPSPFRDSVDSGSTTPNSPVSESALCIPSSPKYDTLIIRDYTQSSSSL
Chain of rat mGlu3 (P31422 23-879): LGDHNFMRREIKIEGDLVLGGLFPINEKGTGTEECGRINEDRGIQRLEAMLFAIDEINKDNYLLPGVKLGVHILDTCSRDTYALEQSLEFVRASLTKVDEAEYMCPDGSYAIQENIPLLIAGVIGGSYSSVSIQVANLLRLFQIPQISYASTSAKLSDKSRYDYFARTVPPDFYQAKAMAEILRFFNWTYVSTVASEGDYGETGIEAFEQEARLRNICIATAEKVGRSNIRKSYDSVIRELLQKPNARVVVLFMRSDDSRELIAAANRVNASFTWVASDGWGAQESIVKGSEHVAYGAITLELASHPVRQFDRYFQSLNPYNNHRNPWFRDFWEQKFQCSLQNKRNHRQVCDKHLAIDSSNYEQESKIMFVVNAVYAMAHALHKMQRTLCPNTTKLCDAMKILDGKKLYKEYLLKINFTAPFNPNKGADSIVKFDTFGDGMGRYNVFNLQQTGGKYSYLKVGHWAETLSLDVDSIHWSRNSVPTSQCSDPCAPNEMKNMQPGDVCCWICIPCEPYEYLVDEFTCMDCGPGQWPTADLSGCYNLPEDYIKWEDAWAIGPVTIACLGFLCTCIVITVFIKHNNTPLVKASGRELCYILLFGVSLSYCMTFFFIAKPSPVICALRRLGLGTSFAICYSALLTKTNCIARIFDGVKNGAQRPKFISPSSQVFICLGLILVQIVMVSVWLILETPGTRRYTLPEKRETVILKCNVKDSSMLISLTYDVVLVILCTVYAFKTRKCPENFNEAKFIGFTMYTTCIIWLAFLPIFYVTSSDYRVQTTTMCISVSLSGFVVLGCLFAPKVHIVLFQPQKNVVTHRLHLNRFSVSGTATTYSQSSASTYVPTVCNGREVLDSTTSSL

Regarding `COc1ccc(N(C)Cc2cc3n(n2)CCN(c2ccccc2F)C3=O)cc1` [Compound 105, 5-(2-fluorophenyl)-2-(((4-methoxyphenyl)(methyl)amino)methyl)-6,7-dihydropyrazolo[1,5-a]pyrazin-4(5H)-one], on rat mGlu3 (setting [1]), the half-maximal inhibitory concentration (IC50) (in general, the concentration that inhibits the measured activity by half) is 871 nM. Further, on rat mGlu3, the remaining activity at 30 µM was 2.05%. At rat mGlu5, the “Fold selectivity (mGlu3 vs. mGlu5)” value was >34. Besides, the EC50 – broadly, the concentration that produces a half-maximal response – on rat mGlu5 (setting [2]) was > 30000 nM.

Regarding `O=C1c2cc(CNc3ccc(OC(F)F)c(F)c3)nn2CCN1c1ccc(F)cc1` [Compound 38, 2-(((4-(difluoromethoxy)-3-fluorophenyl)amino)methyl)-5-(4-fluorophenyl)-6,7-dihydropyrazolo[1,5-a]pyrazin-4(5H)-one], at rat mGlu3 (setting [1]), the IC50 was 489 nM. On rat mGlu3, the remaining activity at 30 µM is 2.28%. In addition, on rat mGlu5, the Emax at 30 µM was 84.7% and the “Fold selectivity (mGlu3 vs. mGlu5)” value was determined as 3.19. Further, the EC50 on rat mGlu5 (setting [2]) is 1560 nM.

Consider `O=C1c2cc(CNc3ccc(Cl)cc3F)nn2CCN1c1ccc(F)cc1` [Compound 34, 2-(((4-chloro-2-fluorophenyl)amino)methyl)-5-(4-fluorophenyl)-6,7-dihydropyrazolo[1,5-a]pyrazin-4(5H)-one], for which the IC50 at rat mGlu3 (setting [1]) was determined as 856 nM. In addition, the remaining activity at 30 µM on rat mGlu3 was 3.18%. Besides, the “Fold selectivity (mGlu3 vs. mGlu5)” value at rat mGlu5 is listed as >35. In addition, the EC50 at rat mGlu5 (setting [2]) is > 30000 nM.

Take `CC(Nc1ccccc1)c1cc2n(n1)CCN(c1ccc(F)cc1)C2=O` (centres unmarked) [Compound 170, 5-(4-fluorophenyl)-2-(1-(phenylamino)ethyl)-6,7-dihydropyrazolo[1,5-a]pyrazin-4(5H)-one]: at rat mGlu3 (setting [1]), the IC50 stood at 2850 nM. Also, at rat mGlu3, the remaining activity at 30 µM turned out to be 0.67%. On rat mGlu5, the “Fold selectivity (mGlu3 vs. mGlu5)” value was >10. Moreover, at rat mGlu5 (setting [2]), the EC50 was > 30000 nM.

In the case of `O=C1c2cc(CNc3ccccc3Cl)nn2CCN1c1ccc(F)cc1` [Compound 5, 2-(((2-chlorophenyl)amino)methyl)-5-(4-fluorophenyl)-6,7-dihydropyrazolo[1,5-a]pyrazin-4(5H)-one], on rat mGlu3 (setting [1]), the half-maximal inhibitory concentration (IC50) was determined as 1270 nM. The remaining activity at 30 µM on rat mGlu3 was 2.08%. Besides, on rat mGlu5, the Emax at 30 µM was found to be 65.4% and the “Fold selectivity (mGlu3 vs. mGlu5)” value was 1.72. Also, the 50% effective concentration (EC50) on rat mGlu5 (setting [2]) was found to be 2190 nM.

Regarding `COc1ccc(N(C)Cc2cc3n(n2)CCN(c2ccccc2OC)C3=O)cc1` [Compound 119, 5-(2-methoxyphenyl)-2-(((4-methoxyphenyl)(methyl)amino)methyl)-6,7-dihydropyrazolo[1,5-a]pyrazin-4(5H)-one], the IC50 at rat mGlu3 (setting [1]) was found to be 3280 nM. Further, the remaining activity at 30 µM at rat mGlu3 is 1.3%. Further, the “Fold selectivity (mGlu3 vs. mGlu5)” value at rat mGlu5 was >9.1. Further, the 50% effective concentration (EC50) at rat mGlu5 (setting [2]) is > 30000 nM.

With `COc1ccc(N(C)Cc2cc3n(n2)CCN(c2c(F)cc(Cl)cc2F)C3=O)cc1` [Compound 128, 5-(4-chloro-2,6-difluorophenyl)-2-(((4-methoxyphenyl)(methyl)amino)methyl)-6,7-dihydropyrazolo[1,5-a]pyrazin-4(5H)-one], on rat mGlu3 (setting [1]), the 50% inhibitory concentration (IC50) was 1860 nM. Besides, the remaining activity at 30 µM on rat mGlu3 turned out to be 1.8%. Further, the “Fold selectivity (mGlu3 vs. mGlu5)” value at rat mGlu5 is recorded as >16. The EC50 at rat mGlu5 (setting [2]) is > 30000 nM.

With `C[C@@H]1CN(c2ccc(F)cc2)C(=O)c2cc(CNc3ccc(CC#N)cc3)nn21` [Compound 66, (R)-2-(4-(((5-(4-fluorophenyl)-7-methyl-4-oxo-4,5,6,7-tetrahydropyrazolo[1,5-a]pyrazin-2-yl)methyl)amino)phenyl)acetonitrile], the IC50 on rat mGlu3 (setting [1]) worked out at 1460 nM. Besides, the remaining activity at 30 µM on rat mGlu3 was 0.95%. For the same compound, the “Fold selectivity (mGlu3 vs. mGlu5)” value on rat mGlu5 was >20. At rat mGlu5 (setting [2]), the EC50 is > 30000 nM.

For `CN(Cc1cc2n(n1)CCN(c1ccc(F)cc1)C2=O)c1ccc(F)cc1` [Compound 89, 5-(4-fluorophenyl)-2-(((4-fluorophenyl)(methyl)amino)methyl)-6,7-dihydropyrazolo[1,5-a]pyrazin-4(5H)-one], the IC50 on rat mGlu3 (setting [1]) came out at 467 nM. In addition, the remaining activity at 30 µM on rat mGlu3 was determined as 1.29%. On rat mGlu5, the “Fold selectivity (mGlu3 vs. mGlu5)” value is reported as >64. Further, the EC50 on rat mGlu5 (setting [2]) is > 30000 nM.

In the case of `COc1ccc(N(C)Cc2cc3n(n2)CCN(c2ccccn2)C3=O)cc1` [Compound 117, 2-(((4-methoxyphenyl)(methyl)amino)methyl)-5-(pyridin-2-yl)-6,7-dihydropyrazolo[1,5-a]pyrazin-4(5H)-one], the 50% inhibitory concentration (IC50) on rat mGlu3 (setting [1]) turned out to be 2730 nM. In addition, the remaining activity at 30 µM on rat mGlu3 stood at 1.59%. Also, the “Fold selectivity (mGlu3 vs. mGlu5)” value on rat mGlu5 is given as >10. Besides, the EC50 at rat mGlu5 (setting [2]) is > 30000 nM.

Consider `Cc1cccc(NCc2cc3n(n2)[C@H](C)CN(c2ccc(F)cc2)C3=O)c1` [Compound 50, (R)-5-(4-fluorophenyl)-7-methyl-2-((m-tolylamino)methyl)-6,7-dihydropyrazolo[1,5-a]pyrazin-4(5H)-one], for which the 50% inhibitory concentration (IC50) at rat mGlu3 (setting [1]) was 3050 nM. The remaining activity at 30 µM on rat mGlu3 stood at 0.09%. Besides, the “Fold selectivity (mGlu3 vs. mGlu5)” value on rat mGlu5 is >9.8. The concentration for a half-maximal effect (EC50) at rat mGlu5 (setting [2]) is > 30000 nM.

Regarding `CN(Cc1cc2n(n1)CCN(c1ccc(F)cc1)C2=O)c1ccc(Cl)cc1` [Compound 90, 2-(((4-chlorophenyl)(methyl)amino)methyl)-5-(4-fluorophenyl)-6,7-dihydropyrazolo[1,5-a]pyrazin-4(5H)-one], the IC50 at rat mGlu3 (setting [1]) is 885 nM. Further, the remaining activity at 30 µM on rat mGlu3 stood at 1.4%. On rat mGlu5, the Emax at 30 µM was found to be 87.3% and the “Fold selectivity (mGlu3 vs. mGlu5)” value is on record as 5.08. At rat mGlu5 (setting [2]), the concentration for a half-maximal effect (EC50) was 4500 nM.

For `COc1ccc(N(C)Cc2cc3n(n2)CCN(c2ccc(Cl)cc2)C3=O)cc1` [Compound 96, 5-(4-chlorophenyl)-2-(((4-methoxyphenyl)(methyl)amino)methyl)-6,7-dihydropyrazolo[1,5-a]pyrazin-4(5H)-one], the IC50 at rat mGlu3 (setting [1]) turned out to be 585 nM. Besides, on rat mGlu3, the remaining activity at 30 µM worked out at 1.61%. On rat mGlu5, the “Fold selectivity (mGlu3 vs. mGlu5)” value is given as >51. Moreover, the EC50 on rat mGlu5 (setting [2]) is > 30000 nM.

Take `COc1ccc(NCc2cc3n(n2)[C@@H](C)CN(c2ccc(F)cc2)C3=O)cc1` [Compound 63, (S)-5-(4-fluorophenyl)-2-(((4-methoxyphenyl)amino)methyl)-7-methyl-6,7-dihydropyrazolo[1,5-a]pyrazin-4(5H)-one]: on rat mGlu3 (setting [1]), the IC50 came to 8370 nM. The remaining activity at 30 µM at rat mGlu3 was -0.6%. Besides, at rat mGlu5, the “Fold selectivity (mGlu3 vs. mGlu5)” value is listed as >3.5. Also, the EC50 on rat mGlu5 (setting [2]) was > 30000 nM.

For `O=C1c2cc(CNc3ccc(OC(F)F)cc3F)nn2CCN1c1ccc(F)cn1` [Compound 146, 2-(((4-(difluoromethoxy)-2-fluorophenyl)amino)methyl)-5-(5-fluoropyridin-2-yl)-6,7-dihydropyrazolo[1,5-a]pyrazin-4(5H)-one], the IC50 at rat mGlu3 (setting [1]) came to 578 nM. The remaining activity at 30 µM at rat mGlu3 worked out at 2.03%. In addition, the “Fold selectivity (mGlu3 vs. mGlu5)” value on rat mGlu5 is on record as >51. On rat mGlu5 (setting [2]), the EC50 is > 30000 nM.

As to `C[C@H]1CN(c2ccc(F)cc2)C(=O)c2cc(CNc3ccc(F)c(F)c3)nn21` [Compound 78, (S)-2-(((3,4-difluorophenyl)amino)methyl)-5-(4-fluorophenyl)-7-methyl-6,7-dihydropyrazolo[1,5-a]pyrazin-4(5H)-one], the IC50 on rat mGlu3 (setting [1]) worked out at 1170 nM. Further, the remaining activity at 30 µM on rat mGlu3 is 1.23%. On rat mGlu5, the Emax at 30 µM was 61.6% and the “Fold selectivity (mGlu3 vs. mGlu5)” value is given as >8.5. At rat mGlu5 (setting [2]), the EC50 was > 10000 nM.

As to `COCc1ccc(N2CCn3nc(CN(C)c4ccc(OC)cc4)cc3C2=O)cc1` [Compound 120, 5-(4-(methoxymethyl)phenyl)-2-(((4-methoxyphenyl)(methyl)amino)methyl)-6,7-dihydropyrazolo[1,5-a]pyrazin-4(5H)-one], the remaining activity at 30 µM at rat mGlu3 was 1.48%. Further, at rat mGlu3 (read-out: rat mGlu3 IC50), the IC50 came to 2880 nM. In addition, on rat mGlu5, the “Fold selectivity (mGlu3 vs. mGlu5)” value is given as >10. The EC50 on rat mGlu5 (setting [2]) is > 30000 nM.

In the case of `COc1cccc(NCc2cc3n(n2)[C@@H](C)CN(c2ccc(F)cc2)C3=O)c1` [Compound 53, (S)-5-(4-fluorophenyl)-2-(((3-methoxyphenyl)amino)methyl)-7-methyl-6,7-dihydropyrazolo[1,5-a]pyrazin-4(5H)-one], the IC50 at rat mGlu3 (setting [1]) turned out to be 10000 nM. In addition, the remaining activity at 30 µM at rat mGlu3 is 8.62%. At rat mGlu5, the “Fold selectivity (mGlu3 vs. mGlu5)” value was >3.0. Further, the EC50 at rat mGlu5 (setting [2]) was > 30000 nM.

Turning to `COc1ccc(NC(C)c2cc3n(n2)CCN(c2ccc(F)cc2)C3=O)cc1` (centres unmarked) [Compound 169, 5-(4-Fluorophenyl)-2-(1-((4-methoxyphenyl)amino)ethyl)-6,7-dihydropyrazolo[1,5-a]pyrazin-4(5H)-one], on rat mGlu3 (setting [1]), the IC50 was found to be 7740 nM. The remaining activity at 30 µM at rat mGlu3 was -6.64%. Also, the “Fold selectivity (mGlu3 vs. mGlu5)” value at rat mGlu5 is on record as >3.8. Besides, the EC50 at rat mGlu5 (setting [2]) was > 30000 nM.

`O=C1c2cc(COc3ccccc3)nn2CCN1c1ccc(F)cc1` [drawing 29 X = O, reference compound]: the IC50 on rat mGlu3 (Table 2 compounds with X = O, read-out: mGlu3 IC50) was determined as 278 nM. Further, the “mGlu3 Glu max” value at rat mGlu3 (setting [3]) is listed as 2%. Besides, the EC50 at rat mGlu5 (Table 2 compounds with X = O, read-out: mGlu5 EC50) came out at 44 nM. Further, the “mGlu5 Glu max” value at rat mGlu5 (setting [3]) is 79%.

Turning to `O=C1c2cc(CNc3ccc(F)cc3F)nn2CCN1c1ccc(F)cc1` [Compound 28, 2-(((2,4-difluorophenyl)amino)methyl)-5-(4-fluorophenyl)-6,7-dihydropyrazolo[1,5-a]pyrazin-4(5H)-one], on rat mGlu3 (setting [1]), the IC50 worked out at 1250 nM. Also, the remaining activity at 30 µM on rat mGlu3 is 1.76%. In addition, on rat mGlu5, the Emax at 30 µM is 80.6% and the “Fold selectivity (mGlu3 vs. mGlu5)” value was found to be 1.21. Besides, on rat mGlu5 (setting [2]), the EC50 worked out at 1510 nM.
